Reference: ChEMBL document CHEMBL1125408 (J Med Chem, 1992)
Active and inactive are the calls of the source.

How the values were obtained:
Cholinesterase [1] = biological target: T1, Cholinesterase (Homo sapiens, UniProt P06276); assay: Ratio of IC50 values obtained for BChE/ AChE
[2] = biological target: T2, Muscarinic acetylcholine receptor M1 (Mus musculus, UniProt P12657); assay: biochemical
T2 sequence (P12657 whole entry): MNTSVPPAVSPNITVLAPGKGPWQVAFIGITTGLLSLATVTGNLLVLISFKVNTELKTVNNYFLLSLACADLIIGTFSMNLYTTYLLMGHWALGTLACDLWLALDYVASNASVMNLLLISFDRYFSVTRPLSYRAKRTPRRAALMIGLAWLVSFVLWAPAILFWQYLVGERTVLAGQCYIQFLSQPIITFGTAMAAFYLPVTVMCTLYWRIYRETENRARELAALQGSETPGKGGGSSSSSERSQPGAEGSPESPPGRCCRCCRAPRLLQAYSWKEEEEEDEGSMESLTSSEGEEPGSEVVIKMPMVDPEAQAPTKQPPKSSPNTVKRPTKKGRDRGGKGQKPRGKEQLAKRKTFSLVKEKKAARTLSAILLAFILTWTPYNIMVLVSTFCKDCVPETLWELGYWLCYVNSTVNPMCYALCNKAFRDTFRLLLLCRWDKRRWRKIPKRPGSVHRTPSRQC
Description: Compound was evaluated for the competitive inhibition of [3H]pirenzepine binding to muscarinic acetylcholine receptor M1 of mouse cerebral cortex

[3] = biological target: T3, Muscarinic acetylcholine receptor M2 (Mus musculus, UniProt Q9ERZ4); assay: biochemical
T3 sequence (Q9ERZ4 whole entry): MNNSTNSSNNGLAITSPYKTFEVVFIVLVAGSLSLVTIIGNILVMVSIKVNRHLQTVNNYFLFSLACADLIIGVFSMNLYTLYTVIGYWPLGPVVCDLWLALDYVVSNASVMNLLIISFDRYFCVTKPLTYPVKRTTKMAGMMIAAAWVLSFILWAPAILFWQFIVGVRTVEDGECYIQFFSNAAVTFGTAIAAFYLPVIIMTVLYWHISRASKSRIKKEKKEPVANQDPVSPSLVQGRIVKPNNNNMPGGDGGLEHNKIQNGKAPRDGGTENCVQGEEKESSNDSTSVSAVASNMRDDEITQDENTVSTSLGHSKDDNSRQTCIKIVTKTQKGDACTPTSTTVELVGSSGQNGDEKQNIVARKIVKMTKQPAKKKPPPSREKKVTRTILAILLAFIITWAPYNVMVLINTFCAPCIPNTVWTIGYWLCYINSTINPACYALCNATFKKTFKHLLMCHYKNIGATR
Description: Compound was evaluated for the competitive inhibition of [3H]methylscopolamine binding to muscarinic acetylcholine receptor M2 of mouse cerebral cortex

Acetylcholinesterase [4] = biological target: T4, Acetylcholinesterase (Homo sapiens, UniProt P22303)
Description: The compound was evaluated for the inhibition of human Acetylcholinesterase

Rattus norvegicus [5] = species on record: Rattus norvegicus
Cholinesterase [6] = biological target: T1, Cholinesterase
Description: The compound was evaluated for the inhibition human of Butyrylcholinesterase

Acetylcholinesterase [7] = biological target: T4, Acetylcholinesterase; remark: listed apart in the source
Description: Inhibition of human acetylcholinesterase-I

[8] = biological target: T5, Muscarinic acetylcholine receptor M2 (Mus musculus) (UniProt Q9ERZ4); assay: Selectivity was defined as the ratio between M2-IC50/M1-IC50
T5 sequence (whole entry): T3 sequence (Q9ERZ4 whole entry)

Rattus norvegicus [9] = species on record: Rattus norvegicus; assay: Concentration required to potentiate the contraction of isolated rat ileum produced by 1*10e-7 M ACh by 20 percent; IA=Inactive; assay type: functional
Cholinesterase [10] = biological target: T1, Cholinesterase; remark: listed apart in the source
Description: The compound was evaluated for the inhibition human of Butyrylcholinesterase I

[11] = biological target: T2, Muscarinic acetylcholine receptor M1; assay: biochemical; remark: listed apart in the source
Description: Compound was evaluated for the competitive inhibition of [3H]pirenzepine binding to Muscarinic acetylcholine receptor M1 of mouse cerebral cortex

[12] = biological target: T3, Muscarinic acetylcholine receptor M2; assay: biochemical; remark: listed apart in the source
Description: Compound was evaluated for the competitive inhibition of [3H]methylscopolamine binding to Muscarinic acetylcholine receptor M2 of mouse cerebral cortex

Rattus norvegicus [13] = species on record: Rattus norvegicus; assay: Concentration required to potentiate the contraction of isolated rat ileum produced by 1*10e-7 M ACh by 20 percent; IA= inactive; assay type: functional
[14] = NMS/OXO-M values are calculated from the ratio of the respective apparent Ki values
Mus musculus [15] = species on record: Mus musculus
Description: Compound was evaluated for the binding affinity by displacing [3H]methylscopolamine ([3H]-NMS) from mouse cerebral cortex tissue.

Mus musculus [16] = species on record: Mus musculus; remark: listed apart in the source

T4 sequence (P22303 whole entry): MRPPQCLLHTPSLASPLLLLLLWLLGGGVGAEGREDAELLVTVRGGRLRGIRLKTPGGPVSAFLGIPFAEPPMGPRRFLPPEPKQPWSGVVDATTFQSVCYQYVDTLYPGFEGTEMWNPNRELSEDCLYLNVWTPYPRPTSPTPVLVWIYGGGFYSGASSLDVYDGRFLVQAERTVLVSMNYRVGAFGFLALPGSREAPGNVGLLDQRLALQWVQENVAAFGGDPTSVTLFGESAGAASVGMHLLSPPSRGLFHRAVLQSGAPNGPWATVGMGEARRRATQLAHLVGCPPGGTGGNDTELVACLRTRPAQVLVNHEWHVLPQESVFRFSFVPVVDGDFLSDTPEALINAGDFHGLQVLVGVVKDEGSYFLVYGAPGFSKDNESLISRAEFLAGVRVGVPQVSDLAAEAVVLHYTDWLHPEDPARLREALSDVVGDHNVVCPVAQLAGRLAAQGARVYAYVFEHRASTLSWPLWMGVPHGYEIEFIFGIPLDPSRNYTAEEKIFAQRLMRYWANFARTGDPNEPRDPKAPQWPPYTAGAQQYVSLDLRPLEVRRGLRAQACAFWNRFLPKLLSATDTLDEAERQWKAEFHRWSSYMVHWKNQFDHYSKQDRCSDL
T1 sequence (P06276 whole entry): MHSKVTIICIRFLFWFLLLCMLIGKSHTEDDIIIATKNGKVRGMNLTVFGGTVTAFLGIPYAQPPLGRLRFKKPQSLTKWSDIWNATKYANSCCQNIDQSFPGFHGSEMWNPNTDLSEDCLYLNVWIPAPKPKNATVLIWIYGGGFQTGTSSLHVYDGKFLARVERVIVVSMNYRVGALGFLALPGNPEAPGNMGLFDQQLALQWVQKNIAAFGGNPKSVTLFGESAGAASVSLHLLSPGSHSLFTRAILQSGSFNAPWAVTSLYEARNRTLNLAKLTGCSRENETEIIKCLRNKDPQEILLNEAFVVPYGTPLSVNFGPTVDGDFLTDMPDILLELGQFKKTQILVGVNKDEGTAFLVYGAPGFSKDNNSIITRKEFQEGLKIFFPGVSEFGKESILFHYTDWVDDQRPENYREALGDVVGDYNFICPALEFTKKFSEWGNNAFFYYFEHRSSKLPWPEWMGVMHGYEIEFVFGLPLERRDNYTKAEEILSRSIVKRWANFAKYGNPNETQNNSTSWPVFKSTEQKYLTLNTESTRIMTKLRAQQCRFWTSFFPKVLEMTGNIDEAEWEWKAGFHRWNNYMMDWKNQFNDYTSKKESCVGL

Row | SMILES | IC50 [2] [nM] | IC50 [3] [nM] | IC50 (Acetylcholinesterase [4]) [nM] | Ileal activity (Rattus norvegicus [5]) [µM] | IC50 (Acetylcholinesterase [7]) [nM] | IC50 (Cholinesterase [10]) [nM] | IC50 [11] [nM] | IC50 [12] [nM] | also measured
1 | CN(C)Cc1ccc(CSCCNc2cc(NCCSCc3ccc(CN(C)C)o3)c([N+](=O)[O-])cc2[N+](=O)[O-])o1 | 490 | 590 | 28 | <0.05 |  |  |  |  | Ratio (Cholinesterase [1]): 0.89; IC50 (Cholinesterase [6]): 25 nM
2 | CN(C)Cc1ccc(CSCc2cccc(CSCc3ccc(CN(C)C)o3)c2)o1 |  |  |  |  | 1500 |  |  |  | 
3 | CN(C)Cc1ccc(CSCc2ccc(CN(C)C)o2)o1 |  |  |  |  | 44000 |  |  |  | 
4 | CN(C)Cc1ccc(CSCCN/C=C(/NCCSCc2ccc(CN(C)C)o2)[N+](=O)[O-])o1 | 900 | 500 | 74 | <0.1 |  |  |  |  | Ratio (Cholinesterase [1]): 18; Ratio [8]: 0.55; IC50 (Cholinesterase [6]): 1300 nM
5 | CN(C)Cc1ccc(CSCCCCCCCSCc2ccc(CN(C)C)o2)o1 | 410 | 710 | 610 |  |  |  |  |  | Ratio (Cholinesterase [1]): 3.1; Ileal activity (Rattus norvegicus [9]): inactive; Ratio [8]: 1.7; IC50 (Cholinesterase [6]): 1900 nM
6 | CN(C)Cc1ccc(CSCc2ccc(CSCc3ccc(CN(C)C)o3)cc2)o1 |  |  |  |  | 260 | 2700 | 540 | 550 | Ileal activity (Rattus norvegicus [13]): inactive
7 | CN(C)Cc1ccc(CSCCCSCc2ccc(CN(C)C)o2)o1 |  |  |  | <0.1 | 330 | 4100 | 1100 | 1500 | 
8 | CN(C)Cc1ccc(CSCCCCCCCCSCc2ccc(CN(C)C)o2)o1 | 310 | 540 | 470 | <0.1 |  |  |  |  | Ratio (Cholinesterase [1]): 4; Ratio [8]: 1.8; IC50 (Cholinesterase [6]): 1900 nM
9 | CN(C)Cc1ccc(CSCCCCCCCCCSCc2ccc(CN(C)C)o2)o1 | 560 | 400 | 460 | <0.1 |  |  |  |  | Ratio (Cholinesterase [1]): 2.2; Ratio [8]: 0.71; IC50 (Cholinesterase [6]): 1000 nM
10 | CN(C)Cc1ccc(CSCCCCCCCCCCSCc2ccc(CN(C)C)o2)o1 |  |  | 1300 |  |  |  |  |  | 
11 | CN(C)Cc1ccc(CSCCSCc2ccc(CN(C)C)o2)o1 |  |  |  | <0.1 | 500 | 4300 | 1100 | 1400 | 
12 | CN(C)Cc1ccc(CSCc2ccc(-c3ccc(CSCc4ccc(CN(C)C)o4)cc3)cc2)o1 |  |  |  | <0.01 | 180 | 1300 | 680 | 1600 | 
13 | CN(C)Cc1ccc(CSCC/N=C/NCCSCc2ccc(CN(C)C)o2)o1 |  |  |  |  | 3000 |  |  |  | 
14 | CNC(=O)Oc1ccc2c(c1)[C@]1(C)CCN(C)[C@@H]1N2C [PHYSOSTIGMINE] | 37000 | 160000 |  | <0.005 |  |  |  |  | 
15 | CN(C)Cc1ccc(CSCCCCCCSCc2ccc(CN(C)C)o2)o1 |  |  |  |  | 740 | 2900 | 540 | 580 | Ileal activity (Rattus norvegicus [13]): inactive
16 | CN(C)Cc1ccc(CSCCCCSCc2ccc(CN(C)C)o2)o1 |  |  |  | <1 | 210 | 3100 | 630 | 2200 | Ratio [14]: 17; Ki (Mus musculus [15]): 20000 nM; Ki (Mus musculus [16]): 1200 nM
17 | CN(C)Cc1ccc(CSCc2ccccc2CSCc2ccc(CN(C)C)o2)o1 |  |  |  |  | 9000 |  |  |  | 
18 | CN(C)Cc1ccc(CSCCNC(=NC#N)NCCSCc2ccc(CN(C)C)o2)o1 |  |  |  | <0.01 | 290 | 2400 | 660 | 470 | 
19 | CN(C)Cc1ccc(CSCCNC(=O)NCCSCc2ccc(CN(C)C)o2)o1 |  |  |  |  | 48000 |  |  |  | 
20 | CN(C)Cc1ccc(CSCCCCCSCc2ccc(CN(C)C)o2)o1 |  |  |  | <0.1 | 900 | 3600 | 810 | 520 | 
